The values that follow come from US20030171361A1, “Pyrrolopyrimidinone derivatives, process of preparation and use” (priority 2002, published 2003).

Data set [1] deals with rabbit platelet PDE V (Oryctolagus cuniculus, UniProt G1SX67). The data set can be described thus: inhibition of cGMP PDE V activity (PDE SPA assay kit, [3H]-cGMP). It is filed as biochemical. The conditions noted are these: in vitro, inhibitors of cGMP PDE V; rabbit platelet enzyme, 30° C., 30 min. How it is done:
The rabbit platelet PDE V was prepared using the method described by Hidaka et al.(Biochim. Biophys. Acta., 429: 485-497, 1976) with minor modification. The platelet-rich plasma (PRP) was prepared by centrifugation of freshly obtained heparinized whole blood at 360 g. Platelets were isolated from the PRP by centrifugation at 1,200 g. Platelet homogenates were prepared in the homogenization buffer (50 mM Tris-HCl buffer containing 1 mM MgCl2, pH 7.4) by sonication for 30 s per 1 mL. The homogenized solutions were then centrifuged at 40,000×g for 2 h at 4° C. The supernatant was loaded on the DEAE-cellulose column (20 mL bed volume, Sigma) pre-equilibrated with equilibration buffer (50 mM Tris-acetate containing 3.75 mM 2-mercaptoethanol, pH 6.0).The column was then washed with 60 mL of equilibration buffer. The PDE isozymes were eluted using a continuous gradient of 0 to 600 mM sodium acetate in the equilibration buffer (60 mL total volume). The 1.0 mL fractions were collected. A flow rate of 60 mL/h was used throughout the ion-exchange chromatography procedure. PDE activities on cAMP and cGMP were characterized as described below. The characterized fractions were pooled and stored at −80 ° C. until the inhibition studies
The cyclic nucleotide PDE V activity was determined using PDE SPA assay kit (Amersham Pharmacia biotech, UK).Each reaction mixture (100 μL total volume) consisted of the column elute containing PDE V (10 μL), [^3H]-cGMP (5 μCi/mL), bovine serum albumin (0.5 mg/mL), and MgCl2 (5 mM) in Tris-HCl buffer (15 mM, pH 7.5).The reactions were initiated by the addition of PDE V and the samples were incubated at 30° C. for 30 min, after which the reaction was stopped by the addition of 50 μL of SPA beads. The reaction tube was then settled for 20 min and was counted on the scintillation counter (Tri-carb 1500, Packard, USA). For the inhibition study of PDE V activity, the test compounds were dissolved in dimethyl sulfoxide (DMSO) and was diluted with distilled water. The final concentration of DMSO was less than 0.2% (v/v).All the inhibition experiments were conducted tinder the conditions where the level of cGMP hydrolysis (lid not exceed 15%, and the product formation increased linearly with time and the amount of enzyme.
The following Table illustrates the in vitro activities for a range of the compounds of the invention as inhibitors of cGMP PDE V.

pIC50: −log10 of the molar value.

The term pIC50 denotes −log10 of the IC50, conventionally taken in molar units. A lower pIC50 goes with a large IC50. Broadly, the melting point is the temperature of the solid-liquid transition. As for `CCCc1cn(C)c2c(=O)[nH]c(-c3cc(S(=O)(=O)N4CCN(C)CC4)ccc3OCC)nc12` [Example 1, 52-(2-ethoxy-5-(4-methylpiperazinylpiperazin-1-ylsulfonyl)phenyl)-15-methyl-37-n-propyl-1,63,5-dihydro-7H4H-pyrrolo[4,33,2-d]pyrimidin-74-one], the melting point was 220.5 to 221 °C. Also, the negative-log IC50 (pIC50) in data set [1] was 8.54.

As for `CCCOc1ccc(S(=O)(=O)N2CCN(C)CC2)cc1-c1nc2c(CCC)cn(C)c2c(=O)[nH]1` [Example 3, 52-(5-(4-methylpiperazinylpiperazin-1-ylsulfonyl)-2-n-propoxyphenyl)-15-methyl-37-n-propyl-1,63,5-dihydro-7H4H-pyrrolo[4,33,2-d]pyrimidin-74-one], the melting point is 183 to 183.5 °C. This compound had a negative-log IC50 (pIC50) in data set [1] of 9.23.

`CCCc1cn(C)c2c(=O)[nH]c(-c3cc(S(=O)(=O)N4CCN(CCCF)CC4)ccc3OCC)nc12` [Example 14, 52-(2-ethoxy-5-(4-(3-fluoropropyl)piperazinylpiperazin-1-ylsulfonyl)phenyl)-15-methyl-37-n-propyl-1,63,5-dihydro-7H4-pyrrolo[4,33,2-d]pyrimidin-74-one] displayed a melting point of 217.5 to 218 °C. Also, in data set [1], the pIC50 is 8.87.

`CCOc1ccc(S(=O)(=O)N2CCN(CCCF)CC2)cc1-c1nc2c(CC)cn(CC)c2c(=O)[nH]1` [Example 18, 52-(2-ethoxy-5-(4-(3-fluoropropyl)piperazinylpiperazin-1-ylsulfonyl)phenyl)-15-ethyl-37-ethyl-1,63,5-dihydro-7H4H-pyrrolo[4,33,2-d]pyrimidin-74-one]: the melting point lay within 182 to 182.5 °C. In data set [1], this compound showed a negative-log IC50 (pIC50) of 8.65.

Turning to `CCOc1ccc(S(=O)(=O)N2CCN(CCCF)CC2)cc1-c1nc2c(CCCF)cn(CC)c2c(=O)[nH]1` [Example 26, 52-(2-ethoxy-5-(4-(3-fluoropropyl)piperazinylpiperazin-1-ylsulfonyl)phenyl)-15-ethyl-37(3-fluoropropyl)-1,63,5-dihydro-7H4H-pyrrolo-[4,33,2-d]pyrimidin-74-one], the melting point was 194 to 194.5 °C. Besides, the pIC50 in data set [1] was 9.21.

In turn, `CCCOc1ccc(S(=O)(=O)N2CCN(CCO)CC2)cc1-c1nc2c(CCCF)cn(CC)c2c(=O)[nH]1` [Example 30] came in with a melting point of 162 to 163 °C. This compound had a negative-log IC50 (pIC50) in data set [1] of 9.74.

In data set [1], `CCCOc1ccc(S(=O)(=O)N2CCN(CCO)CC2)cc1-c1nc2c(CCC)cn(CC)c2c(=O)[nH]1` [Example 31] had a negative logarithm of the IC50 (pIC50) of 9.48.

The compound `CCCOc1ccc(S(=O)(=O)N2CCN(CCCF)CC2)cc1-c1nc2c(CCC)cn(C)c2c(=O)[nH]1` [Example 37, 52-(5-(4-(3-fluoropropyl)piperazinylpiperazin-1-ylsulfonyl)-2-n-propoxyphenyl)-15-methyl-37-n-propyl-1,63,5-dihydro-7H4H-pyrrolo[4,33,2-d]pyrimidin-74-one] showed a negative logarithm of the IC50 (pIC50) in data set [1] of 9.19.

In turn, `CCCc1cn(C)c2c(=O)[nH]c(-c3cc(S(=O)(=O)N4CCN(CCO)CC4)ccc3OCC)nc12` [Example 51, 52-(2-ethoxy-5-(4-(2-hydroxyethyl)piperazinylpiperazin-1-ylsulfonyl)phenyl)-15-methyl-37-n-propyl-1,63,5-dihydro-7H4H-pyrrolo[4,33,2-d]pyrimidin-74-one] had a pIC50 in data set [1] of 8.69.

The compound `CCCOc1ccc(S(=O)(=O)N2CCN(CCO)CC2)cc1-c1nc2c(CCC)cn(C)c2c(=O)[nH]1` [Example 53, 52-(5-(4-(2-hydroxyethyl)piperazinylpiperazin-1-ylsulfonyl)-2-n-propoxyphenyl)-15-methyl-37-n-propyl-1,63,5-dihydro-7H4H-pyrrolo[4,33,2-d]pyrimidin-74-one] had a negative logarithm of the IC50 (pIC50) in data set [1] of 9.31.

In turn, `CCCc1cn(C)c2c(=O)[nH]c(-c3cc(S(=O)(=O)N4CCC(CCC(=O)O)CC4)ccc3OCC)nc12` [Example 123, 52-(2-ethoxy-5-(4-(2-hydroxycarbonylethyl)piperidinylpiperidin-1-ylsulfonyl)phenyl)-15-methyl-37-n-propyl-1,63,5-dihydro-7H4H-pyrrolo[4,33,2-d]pyrimidin-74-one] showed a melting point of 129 to 130.5 °C. In data set [1], this compound gave a pIC50 of 9.15.

For `CCCOc1ccc(S(=O)(=O)N2CCC(CCC(=O)O)CC2)cc1-c1nc2c(CCC)cn(C)c2c(=O)[nH]1` [Example 124, 52-(5-(4-(2-hydroxycarbonylethyl)piperidinylpiperidin-1-ylsulfonyl)-2-n-propoxyphenyl)-15-methyl-37-n-propyl-1,63,5-dihydro-7H4H-pyrrolo[4,33,2-d]pyrimidin-74-one], the pIC50 in data set [1] was 9.57.
